Assay results from publication PMC12298876, “Angiotensin-Converting Enzyme Inhibitory Activity of Selected Phenolic Acids, Flavonoids, Their O-Glucosides, and Low-Molecular-Weight Phenolic Metabolites in Relation to Their Oxidation Potentials” (Metabolites, 2025).
Like-named read-outs stand apart in the source and are kept apart here. Marks after values point to notes of the source that are not given here.

Legend:
ACE [1] = details: cited from earlier work; for IC50: read-out: IC50 (ACE inhibitory activity)
[2] = molecular target: T1, Angiotensin-converting enzymes (ACE) from porcine kidneys (EC 3.4.15.1) (Sus scrofa, UniProt F1RRW5); test: biochemical; details: for lower IC50 in relation to the respective aglycone: glycoside vs aglycon; for higher value of IC50 as compared to the IC50 of the respective aglycon: glucoside vs aglycon
T1 construct: Angiotensin-converting enzymes (ACE) from porcine kidneys (EC 3.4.15.1) were purchased from Sigma-Aldrich; purchased Sigma-Aldrich (St. Louis, MO, USA); host or cells: porcine kidneys (tissue-derived enzyme)
T1 sequence (F1RRW5 34-1309): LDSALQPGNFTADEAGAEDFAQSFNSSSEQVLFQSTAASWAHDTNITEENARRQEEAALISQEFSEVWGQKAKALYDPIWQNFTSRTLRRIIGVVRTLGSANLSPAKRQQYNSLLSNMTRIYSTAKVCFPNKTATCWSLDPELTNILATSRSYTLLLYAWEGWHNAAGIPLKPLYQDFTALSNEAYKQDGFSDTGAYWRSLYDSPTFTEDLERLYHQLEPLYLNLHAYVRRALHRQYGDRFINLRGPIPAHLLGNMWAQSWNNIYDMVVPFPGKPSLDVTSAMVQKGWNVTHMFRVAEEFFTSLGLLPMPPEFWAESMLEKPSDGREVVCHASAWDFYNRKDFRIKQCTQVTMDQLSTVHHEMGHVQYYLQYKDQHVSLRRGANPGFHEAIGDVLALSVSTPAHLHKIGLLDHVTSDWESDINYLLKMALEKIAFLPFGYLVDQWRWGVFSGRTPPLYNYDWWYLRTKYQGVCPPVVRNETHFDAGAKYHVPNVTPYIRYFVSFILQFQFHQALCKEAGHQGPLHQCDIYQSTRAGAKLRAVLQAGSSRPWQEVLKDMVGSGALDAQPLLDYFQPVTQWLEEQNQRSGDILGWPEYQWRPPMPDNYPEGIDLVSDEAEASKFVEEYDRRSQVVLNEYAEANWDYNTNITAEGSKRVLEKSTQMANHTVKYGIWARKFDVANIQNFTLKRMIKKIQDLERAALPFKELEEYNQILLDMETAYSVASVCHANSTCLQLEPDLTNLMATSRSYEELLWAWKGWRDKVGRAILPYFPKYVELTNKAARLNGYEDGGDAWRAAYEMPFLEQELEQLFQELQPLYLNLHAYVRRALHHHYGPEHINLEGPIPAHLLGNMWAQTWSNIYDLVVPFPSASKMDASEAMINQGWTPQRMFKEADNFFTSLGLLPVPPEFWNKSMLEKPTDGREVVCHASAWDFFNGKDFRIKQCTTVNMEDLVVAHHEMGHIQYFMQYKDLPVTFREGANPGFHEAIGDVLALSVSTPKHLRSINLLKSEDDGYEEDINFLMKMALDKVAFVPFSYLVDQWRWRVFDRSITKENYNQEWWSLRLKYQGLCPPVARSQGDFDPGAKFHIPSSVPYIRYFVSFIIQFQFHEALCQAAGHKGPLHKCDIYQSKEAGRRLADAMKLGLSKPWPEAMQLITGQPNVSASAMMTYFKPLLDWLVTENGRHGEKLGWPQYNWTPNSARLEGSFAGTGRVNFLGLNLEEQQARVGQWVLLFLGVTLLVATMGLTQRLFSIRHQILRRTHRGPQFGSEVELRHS
Procedure: Angiotensin-converting enzymes (ACE) from porcine kidneys (EC 3.4.15.1) were purchased from Sigma-Aldrich (St. Louis, MO, USA). A three-tris-base buffer was as follows: buffer A: 300 mM Tris-base buffer (pH 8.3) with 2 mM ZnCl2; buffer B: 150 mM Tris-base buffer (pH 8,3); and buffer C: 150 mM Tris-base buffer (pH 8.3) with […] NaCl. The substrate o-aminobenzoylglycyl-p-nitorphenylalanylproline (Abz-Gly-Phe(NO2)-Pro) was obtained from BACHEM (Bubendorf, Switzerland). Standards of phenolic acids, flavonoids, glucosides, and low-molecular-weight phenolic metabolites were obtained from Sigma-Aldrich (St. Louis, MO, USA) and Extrasynthese (Genay, France). Water was purified using the Mili-Q system (Milipore, Bedford, MA, USA).
Stock solutions at 1 mM of selected phenolic acids, flavonoids, their O-glucosides, and low-molecular-weight phenolic metabolites were prepared in 80% methanol. The concentration was confirmed by a UV measurement according to Franke et al.. A wide range of concentrations of each compound was prepared by serial dilutions in deionized water to determine the IC50 value. […] The ACE inhibitory activity was obtained from three repetitions (n = 3) for each concentration.
Angiotensin-converting enzyme (ACE) activity inhibitory assay was performed according to the method of Sentandreu and Toldra. The procedure was based on the hydrolysis of the internally quenched substrate o-aminobenzoylglycyl-p-nitorphenylalanylproline (Abz-Gly-Phe(NO2)-Pro) by the reaction of ACE. The fluorescence generated by the liberation of the product (the o-aminobenzoylglycine group) was read in a microplate multiscan fluorometer. The production of fluorescence was inhibited by the presence of functional compounds with an ACE inhibitory effect. The fluorescence was measured immediately after mixing (0 min) and then after 30 min of reaction at an excitation of 365 nm and an emission of 405 nm. To calculate the % of inhibition of ACE, the following equation was used:Relative ACE activity% = 100 − (ΔRFUsample × 100/ΔRFUnegative control), where ΔRFU = RFU at time 30 – RFU at time 0.

[3] = First anodic oxidation potential by differential pulse voltammetry (DPV); assay type: physicochemical; details: for Anodic Peak Potential Epa: DPV, first anodic peak, 0.25 mM standard in 0.1 M Britton-Robinson buffer pH 6.0 in 80% methanol, glassy carbon vs Ag/AgCl, 100 mV/s; for antioxidant power class based on the first oxidation potential: low-molecular-weight phenolic metabolites, classes according to Blasco et al. [47]
Procedure: A potentiostat/galvanostat G 750 (Gamry Instruments, Warminster, USA) was used for voltametric experiments. A conventional three-electrode system: a 3 mm diameter glassy carbon working electrode (BAS MF-2012), an Ag/AgCl electrode as a reference electrode, and a platinum as counter electrode, was used in the study. Differential pulse voltametric experiments were performed with phenolic acids and flavonoids prepared in a 1:1 (v/v) mixture of 500 µM standard solution and […] Britton-Robinson (B-R) buffer (pH 6.0 in 80% methanol), which also served as a supporting electrolyte. The voltametric experiments were performed at room temperature using an electrochemical cell (volume 200 µL), to which the analyzed standard solution, mixed previously with the buffer solution, was introduced. The differential pulse voltammograms were acquired in the range of −100 to 1300 mV at a scanning rate of 100 mV/s. Before use, the surface of the glassy carbon electrode was carefully polished with 0.05 µm alumina paste, ultrasonically rinsed in deionized water, and then washed with methanol. This procedure was repeated after each cycle. For test purposes, the first anodic oxidation potential was recorded (mV).

[4] = tested on: formation of advanced glycation end products; design: method as in PMID 27709826; details: cited from earlier work
ACE [5] = tested on: ACE; design: method as in PMID 23185345; details: same fluorometric method as this study; read-out: IC50 (ACE inhibition); cited from earlier work
[6] = porcine kidney ACE, substrate Abz-Gly-Phe(NO2)-Pro, fluorescence after 30 min, mean ± SD, read-out: IC50 Value (ACE inhibitory activity)
[7] = values of this study restated in mM in the discussion, read-out: IC50 (ACE inhibition)
[8] = IC50 Value (ACE inhibitory activity), porcine kidney ACE, substrate Abz-Gly-Phe(NO2)-Pro, fluorescence after 30 min, mean ± SD

SMILES	IC50 [2, 6]	Anodic Peak Potential Epa [3]	IC50 [2, 8]	also measured
O=C(O)/C=C/c1ccc(O)c(O)c1 [Caffeic acid]	9.11 mM	397 ± 8 ^e mV		IC50 (ACE [1]): 8970 ± 80 µM; IC50 [2, 7]: 9.11 ± 0.06 mM; Anodic Peak Potential Epa ([3]; listed as caffeic acid): 397 mV
O=C(O)Cc1ccc(O)c(O)c1 [3,4-DHPAA, 3,4-dihydroxyphenylacetic acid]	0.6728 ± 0.00493 mM	432 ± 6 ^g mV		inhibitory activity against the formation of advanced glycation end products [4]: strong inhibitory activity
O=C(CCc1ccc(O)cc1)c1c(O)cc(O)cc1O [phloretin]				IC50 higher than the IC50 of phloretin 2′-O-glucose (ACE [1]): 25%; IC50 (ACE [1]): 286.8 ± 2.54 µM
O=c1cc(-c2ccc(O)c(O)c2)oc2cc(O)cc(O)c12 [Luteolin]	0.0771 ± 0.00255 mM	407 ± 5 ^f mV		IC50 lower than the value for naringenin ([2]; ACE inhibition): fivefold; IC50 (ACE [5]): 23 µM
O=c1cc(-c2ccc(O)cc2)oc2cc(O)cc(O)c12 [Apigenin]		810 ± 6 ^c mV	0.337 ± 0.00372 mM	IC50 (ACE [5]): 196 µM
O=C(O)c1cc(O)ccc1O [Gentisic acid]		622 ± 8 ^c mV	0.834 ± 0.00926 mM	IC50 ([2]; IC50 (ACE inhibition), values of this study restated in mM in the discussion): 0.834 mM
C[C@@H]1O[C@@H](O[C@H]2[C@H](Oc3cc(O)c4c(=O)cc(-c5ccc(O)cc5)oc4c3)O[C@H](CO)[C@@H](O)[C@@H]2O)[C@H](O)[C@H](O)[C@H]1O [rhoifolin, reference compound]				IC50 (ACE [5]): 183 µM
O=C(O)Cc1ccc(O)cc1 [4-HPAA, 4-hydroxyphenylacetic acid]	1.391 ± 0.0102 mM	815 ± 12 ^c mV		antioxidant power class based on the first oxidation potential [3]: weak antioxidant power (weak antioxidant power (Epa ˃ 0.8 V))
COc1cc(CC(=O)O)ccc1O [HVA, 2-(3-methoxy-4-hydroxyphenyl)acetic acid]		643 ± 5 ^e mV	1.46 mM	ACE inhibitory activity lower than that of reduced glutathione (GSH) ([2]; ratio to the IC50 of GSH): about 35 fold; antioxidant power class based on the first oxidation potential [3]: moderate antioxidant power (moderate antioxidant power (0.3 V < Epa < 0.8 V))
O=c1cc(-c2ccc(O)c(O)c2)oc2cc(OC3OC(CO)C(O)C(O)C3O)cc(O)c12 (stereo not drawn) [Luteolin-7-O-glucoside]		445 ± 3 ^e mV	0.0615 ± 0.00162 mM	lower IC50 in relation to the respective aglycone ([2]; ACE inhibition): 20%
O=c1c(O)c(-c2ccc(O)cc2)oc2cc(O)cc(O)c12 [Kaempferol]	0.132 ± 0.00247 mM	394 ± 4 ^g mV		IC50 (ACE [5]): 178 µM
C[C@@H]1O[C@@H](OC[C@H]2O[C@@H](Oc3c(-c4ccc(O)c(O)c4)oc4cc(O)cc(O)c4c3=O)[C@H](O)[C@@H](O)[C@@H]2O)[C@H](O)[C@H](O)[C@H]1O [Rutin, quercetin-O-3-rutinoside]		389 ± 4 ^g mV	0.0593 mM	lower IC50 in relation to the respective aglycone ([2]; ACE inhibition): 50%; IC50 (ACE [5]): 64 µM
O=c1c(OC2OC(CO)C(O)C(O)C2O)c(-c2ccc(O)cc2)oc2cc(O)cc(O)c12 (stereo not drawn) [Kaempferol-3-O-glucoside]		359 ± 3 ^fg mV	0.11 ± 0.00356 mM	lower IC50 in relation to the respective aglycone ([2]; ACE inhibition): 16%
O=c1c(OC2OC(CO)C(O)C(O)C2O)c(-c2ccc(O)c(O)c2)oc2cc(O)cc(O)c12 [Hyperoside, quercetin-3-O-D-galactoside]		307 ± 3 ^h mV	0.1572 ± 0.00145 mM	higher value of IC50 as compared to the IC50 of the respective aglycon ([2]; ACE inhibition): 30%
Oc1cc(O)c2cc(O)c(-c3cc(O)c(O)c(O)c3)[o+]c2c1 [Delphinidin]		259 ± 3 ^i mV	0.2477 ± 0.00185 mM	
COc1cc(C(=O)O)cc(OC)c1O [Syringic acid]	2.76 ± 0.0363 mM	731 ± 9 ^a mV		
OCC1OC(Oc2cc3c(O)cc(O)cc3[o+]c2-c2ccc(O)c(O)c2)C(O)C(O)C1O (stereo not drawn) [Cyanidin-3-O-glucoside]	0.185 ± 0.00258 mM	373 ± 4 ^g mV		higher value of IC50 as compared to the IC50 of the respective aglycon ([2]; ACE inhibition): 5%
COc1cc(/C=C/C(=O)O)ccc1O [Ferulic acid]	0.98 ± 0.0136 mM	611 ± 6 ^c mV		IC50 [2, 7]: 0.98 mM
